The text below walks through data of patent publication US10596172B2 (Celgene CAR LLC, priority 2008, dated 2020).

The target in assay [1] is T1, BTK (Homo sapiens (Human), UniProt Q06187). Description: Mass spectrometry for BTK (covalent modification of intact protein). Type of assay: binding. Particulars: 1 hr, 10x fold excess of compound. The protocol:
Intact BTK was incubated for 1 hr at a 10× fold excess of I-7 to protein. Aliquots (2 μl) of the samples were diluted with 10 μl of 0.1% TFA prior to micro C4 ZipTipping directly onto the MALDI target using Sinapinic acid as the desorption matrix (10 mg/ml in 0.1% TFA:Acetonitrile 20:80).

Assay [2] deals with B cell lymphoma cell lines. As to the kind of experiment: B cell lymphoma proliferation assay. The class given is cell-based.
For another assay, the target named is JAK3 (Homo sapiens (Human), UniProt P52333). As to the kind of experiment: Omnia assay for potency assessment against the active form of JAK3. The class given is biochemical. To be noted: read-out: JAK3 Inhibition. On the procedure: Briefly, 10× stocks of EGFR-WT (PV3872) from Invitrogen and EGFR-T790M/L858R (40350) from BPS Bioscience, San Diego, Calif., 1.13×ATP (AS001A) and appropriate Tyr-Sox conjugated peptide substrates (KCZ1001) were prepared in 1× kinase reaction buffer consisting of 20 mM Tris, pH 7.5, 5 mM MgCl2, 1 mM EGTA, 5 mM β-glycerophosphate, 5% glycerol (10× stock, KB002A) and 0.2 mM DTT (DS001A).
The Omnia Assay Protocol for potency assessment against JAK3 was performed in a substantially similar manner as that described in Example 251 above except that the modified JAK3-optimized reagent conditions were:
[JAK3]=5 nM, [ATP]=5 μM, [Y12-Sox]=5 μM (ATP KMapp˜5 μM).

Assay [3] concerns the target T1, BTK. Description: Washout experiment with Ramos cells. The class given is cell-based. To be noted: 100 nM compound 1 hour, then washout. The protocol: Ramos cells were serum starved for one hour in RPMI media +1% glutamine at 37° C. After starvation, Ramos cells were treated with 100 nM compound diluted in serum free RPMI media for 1 hour. After compound treatment, the media was removed and cells were washed with compound-free media. Subsequently, Ramos cells were washed every 2 hours and resuspended in fresh compound-free media. Cells were collected at specified timepoints, treated with 1 ug anti-human IgM (Southern Biotech cat #2022-01) for 10 minutes on ice to induce BCR signaling and then washed in PBS. Ramos cells were then lysed in Cell Extraction Buffer (Invitrogen FNN0011) supplemented with Roche complete protease inhibitor tablets (Roche 11697498001) and phosphatase inhibitors (Roche 04 906 837 001) and 18 ug total protein lysate was loaded in each lane. Inhibition of BTK kinase activity was assayed by measuring its substrate (PLCγ2) phosphorylation by western blot with phospho-specific antibodies from Cell Signaling Technologies cat #3871. The results of this experiment with compounds I-2, I-4 and I-7 are depicted in FIGS. 1, 2 and 3.

The target of the next assay is EGFR-WT (Homo sapiens (Human), UniProt P00533). As to the kind of experiment: Omnia assay for potency assessment against EGFR (WT). Particulars: wild-type EGFR; read-out: EGFR Wild Type Inhibition. Type of assay: biochemical.
The target in assay [4] is T1, BTK. Description: Omnia assay for potency assessment against BTK. The class given is biochemical. To be noted: [BTK]=5 nm; read-out: BTK Inhibition. On the procedure:
Omnia Assay Protocol for Potency Assessment Against BTK
The modified BTK-optimized reagent conditions for the above protocol are:
[BTK]=5 nm, [ATP]=40 mM, [Y5-Sox]=10 mM (ATP KMapp˜36 mM).

[5] abbreviates: Homo sapiens, DOHH-2, DOHH2 B cell lymphoma cell line, read-out: EC50 (μM) DOHH2.
Setting [6] is: Homo sapiens, WSUDLCL2, WSU-DLCL2 B cell lymphoma cell line, read-out: EC50 (μM) WSU-DLCL2.

Read-outs that look alike come from different tables or passages of the source.

Sequence of JAK3 (P52333 whole entry): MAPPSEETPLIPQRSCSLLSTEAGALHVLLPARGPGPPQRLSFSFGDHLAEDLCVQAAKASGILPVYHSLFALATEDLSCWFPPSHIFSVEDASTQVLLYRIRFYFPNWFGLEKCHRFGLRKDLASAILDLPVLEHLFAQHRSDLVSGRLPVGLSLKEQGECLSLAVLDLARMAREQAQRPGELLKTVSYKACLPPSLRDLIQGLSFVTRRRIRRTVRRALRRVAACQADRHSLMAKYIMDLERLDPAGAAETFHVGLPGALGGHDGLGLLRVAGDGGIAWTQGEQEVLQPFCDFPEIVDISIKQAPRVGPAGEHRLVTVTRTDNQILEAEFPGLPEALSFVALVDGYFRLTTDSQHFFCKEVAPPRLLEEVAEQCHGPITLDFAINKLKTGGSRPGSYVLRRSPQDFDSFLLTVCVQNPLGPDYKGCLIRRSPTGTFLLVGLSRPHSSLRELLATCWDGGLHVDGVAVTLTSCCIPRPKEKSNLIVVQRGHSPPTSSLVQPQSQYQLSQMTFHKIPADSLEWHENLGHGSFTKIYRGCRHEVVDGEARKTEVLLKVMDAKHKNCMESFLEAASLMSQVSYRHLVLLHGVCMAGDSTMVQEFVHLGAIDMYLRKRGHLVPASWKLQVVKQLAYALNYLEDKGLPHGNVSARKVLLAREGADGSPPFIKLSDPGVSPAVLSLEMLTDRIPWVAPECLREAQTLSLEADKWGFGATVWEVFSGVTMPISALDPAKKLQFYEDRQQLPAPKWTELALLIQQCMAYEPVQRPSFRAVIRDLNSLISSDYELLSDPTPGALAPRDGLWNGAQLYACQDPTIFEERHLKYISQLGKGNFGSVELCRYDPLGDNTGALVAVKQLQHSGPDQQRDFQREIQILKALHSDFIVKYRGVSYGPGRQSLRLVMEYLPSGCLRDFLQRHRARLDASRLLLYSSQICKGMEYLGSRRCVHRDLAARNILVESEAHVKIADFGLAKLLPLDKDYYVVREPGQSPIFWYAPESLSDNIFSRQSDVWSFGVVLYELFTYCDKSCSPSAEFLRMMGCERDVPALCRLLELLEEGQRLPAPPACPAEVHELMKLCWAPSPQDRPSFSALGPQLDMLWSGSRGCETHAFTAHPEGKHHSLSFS
Sequence of EGFR-WT (P00533 25-1210): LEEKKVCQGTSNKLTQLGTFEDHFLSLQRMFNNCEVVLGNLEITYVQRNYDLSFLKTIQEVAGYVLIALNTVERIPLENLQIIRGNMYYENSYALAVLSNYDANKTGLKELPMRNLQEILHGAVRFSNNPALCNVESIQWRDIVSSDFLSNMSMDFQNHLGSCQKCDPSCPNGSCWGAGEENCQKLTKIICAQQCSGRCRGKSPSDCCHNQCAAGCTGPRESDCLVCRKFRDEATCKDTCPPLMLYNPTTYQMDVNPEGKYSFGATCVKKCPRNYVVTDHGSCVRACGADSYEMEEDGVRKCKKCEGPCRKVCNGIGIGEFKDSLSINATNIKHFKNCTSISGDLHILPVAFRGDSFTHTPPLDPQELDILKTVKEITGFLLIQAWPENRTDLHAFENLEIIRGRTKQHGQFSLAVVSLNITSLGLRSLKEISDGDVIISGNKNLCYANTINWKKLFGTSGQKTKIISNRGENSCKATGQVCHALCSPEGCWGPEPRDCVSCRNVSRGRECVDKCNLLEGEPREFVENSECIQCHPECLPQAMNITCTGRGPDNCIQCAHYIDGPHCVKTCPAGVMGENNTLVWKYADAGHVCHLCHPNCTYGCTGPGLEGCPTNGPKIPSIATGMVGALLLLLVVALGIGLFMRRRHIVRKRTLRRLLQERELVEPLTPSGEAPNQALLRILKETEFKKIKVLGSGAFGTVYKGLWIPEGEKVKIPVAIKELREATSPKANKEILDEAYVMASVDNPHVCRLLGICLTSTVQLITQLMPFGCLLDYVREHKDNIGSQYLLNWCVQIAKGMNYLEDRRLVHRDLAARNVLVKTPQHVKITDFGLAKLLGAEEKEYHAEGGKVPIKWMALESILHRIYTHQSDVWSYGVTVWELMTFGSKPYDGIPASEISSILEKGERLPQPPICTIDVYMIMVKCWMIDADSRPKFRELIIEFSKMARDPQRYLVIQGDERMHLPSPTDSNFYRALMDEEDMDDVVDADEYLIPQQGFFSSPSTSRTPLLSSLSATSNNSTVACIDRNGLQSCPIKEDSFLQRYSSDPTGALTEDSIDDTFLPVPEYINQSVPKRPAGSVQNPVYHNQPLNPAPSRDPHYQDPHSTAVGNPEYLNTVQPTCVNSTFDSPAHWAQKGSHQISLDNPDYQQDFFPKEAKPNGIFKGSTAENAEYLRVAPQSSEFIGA
T1 sequence (Q06187 whole entry): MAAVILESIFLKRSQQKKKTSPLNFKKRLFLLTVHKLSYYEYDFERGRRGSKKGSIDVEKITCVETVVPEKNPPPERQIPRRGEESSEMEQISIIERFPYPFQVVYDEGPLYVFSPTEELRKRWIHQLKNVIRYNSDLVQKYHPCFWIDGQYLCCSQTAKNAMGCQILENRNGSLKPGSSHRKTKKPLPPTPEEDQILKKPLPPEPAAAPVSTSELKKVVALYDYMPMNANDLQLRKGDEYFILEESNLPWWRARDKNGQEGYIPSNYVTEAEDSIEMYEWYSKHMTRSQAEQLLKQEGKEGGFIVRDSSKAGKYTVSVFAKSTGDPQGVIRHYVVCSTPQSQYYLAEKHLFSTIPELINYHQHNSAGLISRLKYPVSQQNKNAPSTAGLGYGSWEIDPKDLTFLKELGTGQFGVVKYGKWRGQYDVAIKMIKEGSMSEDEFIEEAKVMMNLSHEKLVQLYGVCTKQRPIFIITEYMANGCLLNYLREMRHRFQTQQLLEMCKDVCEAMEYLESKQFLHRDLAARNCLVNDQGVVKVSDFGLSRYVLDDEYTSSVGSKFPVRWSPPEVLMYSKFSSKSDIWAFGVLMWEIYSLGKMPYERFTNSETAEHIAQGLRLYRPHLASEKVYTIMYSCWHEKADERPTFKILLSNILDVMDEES

For the compound “2-((4-(5-fluoro-2-(3-trifluoromethoxyphenylamino)pyrimidin-4-ylamino)phenyl)(hydroxy)methyl)acrylonitrile [Compound I-163]”, the “covalent modification of BTK by mass spectrometry” value (“covalent modification of BTK” below) on BTK [1] is “completely modify”.
As for `C=CC(=O)Nc1cccc(Nc2nc(Nc3ccccc3)ncc2F)c1` [Compound I-28, N-(3-(5-fluoro-2-(phenylamino)pyrimidin-4-ylamino)phenyl)acrylamide], the EC50 in assay [2] (setting [5]) and in assay [2] (setting [6]) was 1 to 10 µM in each case. Further, the IC50 at JAK3 was < 0.01 µM. On BTK [3], the “BTK Inhibition Type” value was “irreversible”.
With `C#CCOc1cccc(Nc2ncc(C)c(Nc3cccc(NC(=O)C=C)c3)n2)c1` [Compound I-35, N-(3-(5-methyl-2-(3-(prop-2-ynyloxy)phenylamino)pyrimidin-4-ylamino)phenyl) acrylamide], the EC50 in assay [2] (setting [5]) and in assay [2] (setting [6]) was 1 to 10 µM throughout. Further, the IC50 at JAK3 is < 0.01 µM. At BTK [3], the “BTK Inhibition Type” value is reported as “irreversible”.
As for `Cc1cnc(Nc2ccccc2)nc1Nc1cccc(NC(=O)/C=C/CN(C)C)c1` [Compound I-38, (E)-4-(dimethylamino)-N-(3-(5-methyl-2-(phenylamino)pyrimidin-4-ylamino)phenyl)but-2-enamide], the EC50 in assay [2] (setting [5]) and in assay [2] (setting [6]) was 1 to 10 µM throughout. Further, the IC50 at JAK3 was in the range of 0.01 to 0.1 µM. The “BTK Inhibition Type” value at BTK [3] was “reversible”.
For the compound `C=C(C#N)C(O)c1cccc(Nc2nc(Nc3ccc(OCCOC)cc3)ncc2F)c1` (centres unmarked) [Compound I-71, 2-((3-(5-fluoro-2-(4-(2-methoxyethoxy)phenylamino)pyrimidin-4-ylamino)phenyl)(hydroxy)methyl)acrylonitrile], the “covalent modification of BTK” value at BTK [1] is given as “completely modify”.
On to `C=CC(=O)N1CCOc2ccc(Nc3ncc(F)c(Nc4cccc(Cl)c4)n3)cc21` [Compound I-149, 1-(6-(4-(3-chlorophenylamino)-5-fluoropyrimidin-2-ylamino)-2H-benzo[b][1,4]oxazin-4(3H)-yl)prop-2-en-1-one], for which the EC50 in assay [2] (setting [5]) was in the range of 1 to 10 µM. On BTK [1], the “covalent modification of BTK” value was “completely modify”.
`C=C(C#N)C(O)c1ccc(Nc2nc(Nc3ccccc3)ncc2F)cc1` (centres unmarked) [Compound I-161, 2-((4-(5-fluoro-2-(phenylamino)pyrimidin-4-ylamino)phenyl)(hydroxy)methyl)acrylonitrile]: the EC50 in assay [2] (DHL4 B cell lymphoma cell line, read-out: EC50 (μM) DHL4) was 1 to 10 µM; in assay [2] (setting [5]) it was 1 to 10 µM. In addition, the “covalent modification of BTK” value on BTK [1] is given as “completely modify”.
Consider `C=CC(=O)N(C)Cc1ccc(Nc2nc(Nc3ccccc3)ncc2C)cc1` [Compound I-219, N-methyl-N-(4-(5-methyl-2-(phenylamino)pyrimidin-4-ylamino)benzyl)acrylamide], for which, on BTK [1], the “covalent modification of BTK” value is “completely modify”.
For `C=CC(=O)Nc1cccc(Oc2nc(Nc3ccccc3)ncc2F)c1` [Compound I-228, N-(3-(5-fluoro-2-(phenylamino)pyrimidin-4-yloxy)phenyl)acrylamide], the EC50 in assay [2] (setting [5]) and in assay [2] (setting [6]) was > 10 µM each time. Further, at BTK [3], the “BTK Inhibition Type” value is recorded as “irreversible”.
In the case of `C=CC(=O)Nc1cccc(Nc2nc(Nc3ccccc3)ncc2C(N)=O)c1` [Compound I-230, 4-(3-acrylamidophenylamino)-2-(phenylamino)pyrimidine-5-carboxamide], the EC50 in assay [2] (setting [5]) and in assay [2] (setting [6]) was 1 to 10 µM throughout. Besides, the “BTK Inhibition Type” value on BTK [3] is given as “irreversible”.
Consider `C=CC(=O)Nc1cccc(Nc2nc(Nc3cccc(OC)c3)ncc2C(F)(F)F)c1` [Compound I-242, N-(3-(5-trifluoromethyl-2-(3-methoxyphenylamino)pyrimidin-4-ylamino)phenyl)acrylamide], for which the EC50 in assay [2] (setting [5]) and in assay [2] (setting [6]) was 1 to 10 µM each time. Besides, on JAK3, the IC50 was < 0.01 µM. For the same compound, the “BTK Inhibition Type” value on BTK [3] is reported as “irreversible”.
For the compound `C=CC(=O)Nc1cccc(Nc2nc(Nc3ccc(OC)nc3)ncc2F)c1` [Compound I-243, N-(3-(5-fluoro-2-(6-methoxypyridin-3-ylamino)pyrimidin-4-ylamino)phenyl)acrylamide], the EC50 in assay [2] (setting [5]) and in assay [2] (setting [6]) was 1 to 10 µM each time. The IC50 at JAK3 was < 0.01 µM. The “BTK Inhibition Type” value on BTK [3] is given as “irreversible”.
Consider `C=CC(=O)Nc1cccc(Nc2nc(Nc3ccc(F)cc3)ncc2F)c1` [Compound I-247, N-(3-(5-fluoro-2-(4-fluorophenylamino)pyrimidin-4-ylamino)phenyl)acrylamide], for which the EC50 in assay [2] (setting [5]) is 0.1 to 1 µM; in assay [2] (setting [6]), 1 to 10 µM. In addition, on JAK3, the IC50 is < 0.01 µM. Moreover, on BTK [3], the “BTK Inhibition Type” value is recorded as “irreversible”.
As to `C=CC(=O)Nc1cccc(Oc2nc(Nc3ccccc3)ncc2C)c1` [Compound I-248, N-(3-(5-methyl-2-(phenylamino)pyrimidin-4-yloxy)phenyl)acrylamide], the EC50 in assay [2] (setting [5]) and in assay [2] (setting [6]) was 1 to 10 µM in each case. Also, at JAK3, the IC50 is < 0.01 µM. On BTK [3], the “BTK Inhibition Type” value is recorded as “irreversible”.
As to `Cc1cccc(Nc2nc(Nc3cccc(NC(=O)/C=C/CN(C)C)c3)ncc2C)c1` [Compound I-360, (E)-4-(dimethylamino)-N-(3-(5-methyl-4-(m-tolylamino)pyrimidin-2-ylamino)phenyl)but-2-enamide], the IC50 on EGFR-WT, at JAK3 and on BTK [4] was < 0.01 µM in each case.
As for `C=CC(=O)Nc1cccc(Nc2nc(Nc3ccc(O[C@H](C)CO)c(F)c3)ncc2F)c1` [Compound I-372, (R)—N-(3-(5-fluoro-2-(3-fluoro-4-(1-hydroxypropan-2-yloxy)phenylamino)pyrimidin-4-ylamino)phenyl)acrylamide], the IC50 was 0.01 to 0.1 µM at EGFR-WT and < 0.01 µM on BTK [4].
For the compound `C=CC(=O)Nc1cccc(Nc2nc(Nc3ccc(O[C@@H](C)CO)c(F)c3)ncc2F)c1` [Compound I-373, (S)—N-(3-(5-fluoro-2-(3-fluoro-4-(1-hydroxypropan-2-yloxy)phenylamino)pyrimidin-4-ylamino)phenyl)acrylamide], the results for the IC50 at EGFR-WT and on BTK [4] were 0.01 to 0.1 µM and < 0.01 µM, respectively.
Regarding `C=CC(=O)Nc1cccc(Nc2nc(Nc3ccc(O[C@H](C)COC(=O)[C@@H](N)C(C)C)c(F)c3)ncc2F)c1` [Compound I-374, (S)-((R)-2-(4-(4-(3-acrylamidophenylamino)-5-fluoropyrimidin-2-ylamino)-2-fluorophenoxy)propyl) 2-amino-3-methylbutanoate], the IC50 at EGFR-WT and at BTK [4] was < 0.01 µM each time.
Regarding `C=CC(=O)Nc1cccc(Nc2nc(Nc3ccc(OCCN=[N+]=[N-])cc3)ncc2F)c1` [Compound I-376, N-(3-(2-(4-(2-azidoethoxy)phenylamino)-5-fluoropyrimidin-4-ylamino)phenyl)acrylamide], the results for the IC50 on EGFR-WT and at BTK [4] were 0.01 to 0.1 µM and < 0.01 µM, respectively.
In the same order, the values of `COCCOc1ccc(Nc2ncc(F)c(Nc3ccc(CC(=O)C=C4CCC4)cc3)n2)cc1F` [Compound I-378] are 0.01 to 0.1 µM and < 0.01 µM.
Turning to `C=CC(=O)Nc1cccc(Nc2ncc(F)c(Nc3ccc(OCCOC)cc3)n2)c1` [Compound I-381, N-(3-(5-fluoro-4-(4-(2-methoxyethoxy)phenylamino)pyrimidin-2-ylamino)phenyl)acrylamide], the IC50 on EGFR-WT and at BTK [4] was < 0.01 µM in each case.
Regarding `C=CC(=O)Nc1cccc(Nc2ncc(F)c(Nc3cccc(OCCN4CCOCC4)c3)n2)c1` [Compound I-382, N-(3-(5-fluoro-4-(3-(2-morpholinoethoxy)phenylamino)pyrimidin-2-ylamino)phenyl)acrylamide], the IC50 at EGFR-WT is 0.1 to 1 µM; on BTK [4], 0.01 to 0.1 µM.

One may read the EC50 as the concentration giving half of the maximal effect.
